Results reported in patent US20030170606A1, “High-throughput screening assays for modulators of mitochondrial membrane potential” (priority 1999, published 2003).

System: UCP1
Test: DiSC3 fluorescence assay in permeabilized UCP1-expressing yeast cells (YUCP)
Assay type: cell-based
Method: To make the cells permeable to externally added compounds, the yeast cells were treated with zymolyase. The spheroplasts were cultured in full media for 0.5 hours and pelleted. The pellets were resuspended in a lysis buffer and stored at about −80° C. The permeabilized cells can be kept in this way for at least one half year without loss of activity.
To assess the effects of known modulators of uncoupling activity and of uncoupling protein activity, the following fluorescence intensity measurements were carried out: Permeabilized cells were combined with the fluorescent dye DiSC3 in buffer and incubated for about 5-60 min., usually less than about 30 min. The resulting fluorescence intensity (λexc=620 nm, λem=670 nm) corresponded to the basal ΔΨm. The mitochondria accumulate the fluorescent dye into the matrix in proportion to the ΔΨm, and at basal ΔΨm, the DiSC3 fluorescence is substantially quenched.
A Beckman Multimek™ 96 Automated 96-channel Pipettor was programmed to mix test compounds from master plates with the buffer containing freshly premixed permeabilized cells (0.1 OD) and DiSC3 (0.1 μM) and transfer this mixture to black 96-well plates. An LJL analyst was used in the fluorescence intensity mode to measure the DiSC3 fluorescence. […] A total of about 3,300 compounds were screened in this way to test the feasibility of this method.
Data are presented in FIG. 7B after transformation of the fluorescence data according to (Fcompd/Fcontrol−1), where Fcompd is the fluorescence intensity of a given well (as shown in FIG. 7A), and Fcontrol is the basal fluorescence obtained as an average intensity in column 1 where no compound was added (instead an equivalent volume of dimethyl sulfoxide (DMSO) was added).

SMILES: CCCCCCCCCCCCCCC(Br)C(=O)O (stereo not shown) [BrPalm, 2-bromo-palmitate]
- DiSC3 fluorescence level upon addition of compound (5 to 10 μM): higher fluorescence level

SMILES: N#CC(C#N)=NNc1ccc(Cl)cc1 [CCCP, carbonyl-cyanide p-chlorophenylhydrazone]
- DiSC3 fluorescence level upon addition of compound (1 μM): fluorescence reaches a maximum level

SMILES: Nc1nc2c(ncn2[C@@H]2O[C@H](COP(=O)(O)OP(=O)(O)O)[C@@H](O)[C@H]2O)c(=O)[nH]1 [GDP]
- DiSC3 fluorescence level upon addition of compound (100 μM added in the presence of BrPalm): reverted back to the level close to basal intensity

SMILES: [Cl-].[K+] [KCl]
- change in DiSC3 fluorescence intensity (plasma membrane potential control) (0 to 125 mM): no change in fluorescence intensity
